Results as given in patent US10357546B2, “Acceleration of diabetic wound healing” (University of Notre Dame du Lac, priority 2014, dated 2019).
pKi: −log10 of the molar value. Entries after “also recorded” stand apart in the source; their conditions may differ. Structures can show the parent of a compound that is named as a salt. Where two headings read alike, the source gives them in different places.

Experiments:
[1] = target: MMP-8 (Homo sapiens (Human), UniProt P22894); assay: Enzyme inhibition, MMP-8 catalytic domain; assay type: biochemical
Description: (§6) Inhibitor stock solutions (10 mM) were prepared freshly in DMSO before enzyme inhibition assays. […] Enzyme inhibition studies were carried out using a Cary Eclipse fluorescence spectrophotometer (Varian, Walnut Creek, Calif., USA).

[2] = target: T1, MMP-9 (Homo sapiens (Human), UniProt P14780); assay: Enzyme inhibition, MMP-9 catalytic domain; assay type: biochemical; details: for residence time: calculated as 1/koff
Target sequence in this assay (P14780 107-444): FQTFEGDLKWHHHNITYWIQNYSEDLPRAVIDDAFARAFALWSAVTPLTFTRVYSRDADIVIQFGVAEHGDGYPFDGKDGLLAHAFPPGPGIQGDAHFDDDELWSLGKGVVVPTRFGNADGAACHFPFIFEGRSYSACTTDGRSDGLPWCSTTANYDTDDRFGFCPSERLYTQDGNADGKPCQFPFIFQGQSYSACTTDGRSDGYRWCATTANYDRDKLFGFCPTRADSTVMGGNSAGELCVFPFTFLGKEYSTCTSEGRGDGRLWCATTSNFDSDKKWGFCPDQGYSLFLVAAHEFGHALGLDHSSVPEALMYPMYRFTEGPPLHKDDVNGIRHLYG
Description: as §6

[3] = target: MMP-7 (Homo sapiens (Human), UniProt P09237); assay: Enzyme inhibition, MMP-7; assay type: biochemical
Description: (§1) Human recombinant active MMP-2 and MMP-7, and the catalytic domains of MMP-3 and MMP-14/MT1-MMP were purchased from EMD Chemicals, Inc. (San Diego, Calif., USA); human recombinant catalytic domains of MMP-1, MMP-8, and MMP-9 were purchased from Enzo Life Sciences, Inc. (Farmingdale, N.Y., USA); human recombinant active ADAM9 and ADAM10 were purchased from R&D Systems (Minneapolis, Minn., USA). Fluorogenic substrates MOCAc-Pro-Leu-Gly-Leu-A2pr(Dnp)-Ala-Arg-NH2 (for MMP-2, MMP-7, MMP-9 and MMP-14) and MOCAc-Arg-Pro-Lys-Pro-Val-Glu-Nva-Trp-Arg-Lys(Dnp)-NH2 (for MMP-3) were purchased from Peptides International (Louisville, Ky., USA); Mca-KPLGL-Dpa-AR-NH2 (for MMP-1, MMP-8 and ADAM10) and Mca-PLAQAV-Dpa-RSSSR-NH2 (for ADAM9) were purchased from R&D Systems (Minneapolis, Minn., USA). The Km values for MMP-2, MMP-9 and MMP-14 were the same as previously reported by Gooyit et al. ((2013) J. Med. Chem. 56(20):8139-8150). Inhibitor stock solutions (10 mM) were prepared freshly in DMSO before enzyme inhibition assays. We followed the same methodology for enzyme inhibition studies as reported before by Page-McCaw et al. ((2007) Nat Rev Mol Cell Biol 8(3):221-233). Enzyme inhibition studies were carried out using a Cary Eclipse fluorescence spectrophotometer (Varian, Walnut Creek, Calif., USA).

[4] = target: T2, MMP-2 (Homo sapiens (Human), UniProt P08253); assay: Enzyme inhibition, MMP-2; assay type: biochemical
Description: as §1
Target sequence in this assay (P08253 110-660): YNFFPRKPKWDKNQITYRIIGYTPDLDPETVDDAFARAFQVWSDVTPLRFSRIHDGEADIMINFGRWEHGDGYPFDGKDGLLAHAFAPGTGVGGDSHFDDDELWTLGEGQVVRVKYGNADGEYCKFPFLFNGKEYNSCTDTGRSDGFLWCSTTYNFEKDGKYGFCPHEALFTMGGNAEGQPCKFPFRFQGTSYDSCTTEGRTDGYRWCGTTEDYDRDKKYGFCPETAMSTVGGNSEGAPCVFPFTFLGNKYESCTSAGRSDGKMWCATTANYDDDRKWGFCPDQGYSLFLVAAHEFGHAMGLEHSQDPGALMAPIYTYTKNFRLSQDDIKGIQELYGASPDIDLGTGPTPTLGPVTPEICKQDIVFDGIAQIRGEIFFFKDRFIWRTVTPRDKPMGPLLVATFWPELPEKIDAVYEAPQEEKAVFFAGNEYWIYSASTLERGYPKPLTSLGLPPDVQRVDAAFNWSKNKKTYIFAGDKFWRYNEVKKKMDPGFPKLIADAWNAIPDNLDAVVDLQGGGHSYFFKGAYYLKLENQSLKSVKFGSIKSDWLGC

[5] = system: MMP-9 activity (gelatinase) in diabetic wounds; assay: In-situ zymography with DQ-gelatin; assay type: in vivo, mouse; details: db/db mice
Description: (§7) In-situ zymography detects MMP activity in vivo using the fluorogenic substrates: DQ-gelatin for gelatinase (MMP-2 and MMP-9) activity and DQ-collagen for collagenase (MMP-1, MMP-8, and MMP-13) activity.
(§8) Wounds were embedded in optimal cutting temperature (OCT, Tissue-Tek, Sakura Finetek, Torrance, Calif., USA) compound and cryosectioned at 12-μm thickness for hematoxylin-eosin (H&E) and at 8-μm thickness for in-situ zymography. […] For in-situ zymography, unfixed cryostat sections of wound tissues were incubated in reaction buffer (50 mM TBS pH 7.6) containing DQ-gelatin or DQ-collagen (Molecular Probes, Inc., Eugene, Oreg., USA) at 37° C. for 6 h. After fixation in 4% paraformaldehyde in PBS, cells were counterstained with DAPI and the images were visualized by fluorescence microscopy. […] The images for in-situ zymography and vascular density were obtained by confocal microscopy.

[6] = system: MMP-8 activity (collagenase) in diabetic wounds; assay: In-situ zymography with DQ-collagen; assay type: in vivo, mouse; details: db/db mice
Description: as §7, §8

[7] = system: CD31; assay: Angiogenesis by anti-CD31 staining; assay type: in vivo, mouse; details: db/db mice wounds
Description: (§2) Wounds were embedded in optimal cutting temperature (OCT, Tissue-Tek, Sakura Finetek, Torrance, Calif., USA) compound and cryosectioned at 12-μm thickness for hematoxylin-eosin (H&E) and at 8-μm thickness for in-situ zymography. Re-epithelialization was assessed on a fluorescent microscope (Nikon Eclipse 90i, Nikon Instruments, Inc., Melville, N.Y., USA). Apoptotic cells in wound sections were assessed using a modified terminal deoxynucleotidyl transferase-mediated dUTP-nick-end labeling (TUNEL) assay kit, following the manufacturer's instructions (Trevigen, Inc., Gaithersburg, Md., USA). For in-situ zymography, unfixed cryostat sections of wound tissues were incubated in reaction buffer (50 mM TBS pH 7.6) containing DQ-gelatin or DQ-collagen (Molecular Probes, Inc., Eugene, Oreg., USA) at 37° C. for 6 h. After fixation in 4% paraformaldehyde in PBS, cells were counterstained with DAPI and the images were visualized by fluorescence microscopy. Immunofluorescent detection of vascular density was performed by staining the tissues with Alexa Fluor 488 anti-mouse CD31 (BioLegend, San Diego, Calif., USA), followed by staining the nuclei with DAPI. The images for in-situ zymography and vascular density were obtained by confocal microscopy.

[8] = system: VEGF; assay: VEGF in wound tissue by ELISA; assay type: in vivo, mouse; details: db/db mice
Description: (§3) Mice were sacrificed on days 7, 10, and 14, and the excised wounds were embedded in OCT compound and cryosectioned for histological evaluation and in situ zymography.
(§4) Wound tissues (n=3 mice/group) were harvested and immediately frozen in liquid nitrogen on days 1, 3, and 14. The extracted tissues were homogenized in cold lysis buffer containing free-EDTA protease inhibitor cocktail (Pierce, Rockford, Ill., USA). The lysates were analyzed for protein concentration by the Bradford protein assay (Bio-Rad, Hercules, Calif., USA). The levels of IL-6, TGF-β1 and VEGF in the lysates were determined by ELISA, following the manufacturer's protocol (Abcam, Cambridge, Mass., USA). The cytokine levels for each mouse sample were expressed in picograms/mg tissue.

[9] = target: MMP-1 (Homo sapiens (Human), UniProt P03956); assay: Enzyme inhibition, MMP-1 catalytic domain; assay type: biochemical
Description: as §1

[10] = target: ADAM9 (Homo sapiens (Human), UniProt Q13443); assay: Enzyme inhibition, ADAM9; assay type: biochemical
Description: as §1

[11] = target: ADAM10 (Homo sapiens (Human), UniProt O14672); assay: Enzyme inhibition, ADAM10; assay type: biochemical
Description: as §1

[12] = system: diabetic wounds of db/db mice; assay: Excisional diabetic wound model, wound closure; assay type: in vivo, mouse
Description: Female diabetic db/db mice (BKS.Cg-Dock7^m+/+Lepr^db/J, 8-weeks old) were purchased from the Jackson Laboratory (Bar Harbor, Me., USA) and fed 5001 Laboratory Rodent Diet (LabDiet, St. Louis, Mo., USA) and water ad libitum. Mice were housed in polycarbonate shoebox cages with hardwood bedding at 72±2° F. and 12 h light/12 h dark.
The dorsal area of the mice was shaved, and a single excisional 8-mm diameter wound (50 mm^2) was made on the dorsal thorax with a biopsy punch (Miltex, Plainsboro, N.J., USA) while the animals were under isofluorane anesthesia. Wounds were covered with Tegaderm™ dressing (3M Company, St. Paul, Minn., USA). Topical treatment was started the next day.
Mice were anesthetized with isofluorane, and wounds were photographed with an Olympus SP-800 UZ camera mounted on a tripod at a fixed distance; a ruler was included in the digital photo. Wound areas were calculated using NIH ImageJ software (version 1.48) and expressed as percent change in wound area relative to day 0.
(§5) Wound measurements were taken on days 0, 7, 10, and 14. Animals were sacrificed on day 14 and wounds analyzed by H&E staining, TUNEL, and in-situ zymography.
Female diabetic db/db (BKS.Cg-Dock7m+/+Leprdb/J, 8-weeks old, 38±3 g, n=24) were used for this study. Wounds were inflicted as described and the following day the wounds were treated topically with MMP-8 (50 μL of 20 μg/mL MMP-8 in reaction buffer) or vehicle (50 μL reaction buffer) once a day for 14 days. The reaction buffer consisted of 50 mM Tris (pH 7.5), 10 mM CaCl2, 150 mM NaCl, and 0.05% (w/v) Brij-35 (polyoxyethyleneglycoli dodecyl ether). Digital photographs of the wounds were taken on days 0, 7, 10, and 14 while animals were under isoflurane anesthesia. On days 7 and 14, 12 mice (n=6 per group) were sacrificed. The wounds were excised, embedded in OCT compound, and cryosectioned for histological evaluation and in-situ zymography.
as §3

[13] = system: IL-6; assay: IL-6 in wound tissue by ELISA; assay type: in vivo, mouse; details: db/db mice, versus vehicle
Description: as §3, §4

[14] = target: MMP-3 (Homo sapiens (Human), UniProt P08254); assay: Enzyme inhibition, MMP-3 catalytic domain; assay type: biochemical
Description: as §1

[15] = system: apoptotic cells in diabetic wounds; assay: TUNEL apoptosis detection in diabetic wounds; assay type: in vivo, mouse; details: db/db mice, ND-336 0.1 mg/wound/day, day 14
Description: as §5, §3
as §2, with “Immunofluorescent detection of vascular density was performed by staining the tissues with Alexa Fluor 488 anti-mouse CD31 (BioLegend, San Diego, Calif., USA), followed by staining the nuclei with DAPI. The images for in-situ zymography and vascular density were obtained by confocal microscopy.” left out

[16] = target: MMP-14 (Homo sapiens (Human), UniProt P50281); assay: Enzyme inhibition, MMP-14 catalytic domain; assay type: biochemical
Description: as §1

[17] = system: TGF-β1; assay: TGF-β1 in wound tissue by ELISA; assay type: in vivo, mouse; details: db/db mice, versus vehicle
Description: as §3, §4

[18] = system: re-epithelialization of diabetic wounds; assay: H&E staining, re-epithelialization of diabetic wounds; assay type: in vivo, mouse; details: db/db mice, ND-336 0.1 mg/wound/day, day 14
Description: as §5
Female diabetic db/db (BKS.Cg-Dock7m+/+Leprdb/J, 8-weeks old, 38±3 g, n=24) were used for this study. Wounds were inflicted as described and the following day the wounds were treated topically with MMP-8 (50 μL of 20 μg/mL MMP-8 in reaction buffer) or vehicle (50 μL reaction buffer) once a day for 14 days. The reaction buffer consisted of 50 mM Tris (pH 7.5), 10 mM CaCl2, 150 mM NaCl, and 0.05% (w/v) Brij-35 (polyoxyethyleneglycoli dodecyl ether). […]
Wounds were embedded in optimal cutting temperature (OCT, Tissue-Tek, Sakura Finetek, Torrance, Calif., USA) compound and cryosectioned at 12-μm thickness for hematoxylin-eosin (H&E) and at 8-μm thickness for in-situ zymography. Re-epithelialization was assessed on a fluorescent microscope (Nikon Eclipse 90i, Nikon Instruments, Inc., Melville, N.Y., USA). Apoptotic cells in wound sections were assessed using a modified terminal deoxynucleotidyl transferase-mediated dUTP-nick-end labeling (TUNEL) assay kit, following the manufacturer's instructions (Trevigen, Inc., Gaithersburg, Md., USA). […] After fixation in 4% paraformaldehyde in PBS, cells were counterstained with DAPI and the images were visualized by fluorescence microscopy. […]

[19] = Stability in the buffers of the kinetic assays; assay type: physicochemical
[20] = system: ultraviolet B irradiated murine skin; details: Kobayashi & Shinkai (2005); cited from earlier work
[21] = target: T2, MMP-2; details: for comparison; cited from earlier work
Target sequence in this assay (P08253 110-660, species assumed): as the sequence (P08253 110-660) above

[22] = target: T1, MMP-9; details: for comparison; cited from earlier work
Target sequence in this assay (P14780 94-707, species assumed): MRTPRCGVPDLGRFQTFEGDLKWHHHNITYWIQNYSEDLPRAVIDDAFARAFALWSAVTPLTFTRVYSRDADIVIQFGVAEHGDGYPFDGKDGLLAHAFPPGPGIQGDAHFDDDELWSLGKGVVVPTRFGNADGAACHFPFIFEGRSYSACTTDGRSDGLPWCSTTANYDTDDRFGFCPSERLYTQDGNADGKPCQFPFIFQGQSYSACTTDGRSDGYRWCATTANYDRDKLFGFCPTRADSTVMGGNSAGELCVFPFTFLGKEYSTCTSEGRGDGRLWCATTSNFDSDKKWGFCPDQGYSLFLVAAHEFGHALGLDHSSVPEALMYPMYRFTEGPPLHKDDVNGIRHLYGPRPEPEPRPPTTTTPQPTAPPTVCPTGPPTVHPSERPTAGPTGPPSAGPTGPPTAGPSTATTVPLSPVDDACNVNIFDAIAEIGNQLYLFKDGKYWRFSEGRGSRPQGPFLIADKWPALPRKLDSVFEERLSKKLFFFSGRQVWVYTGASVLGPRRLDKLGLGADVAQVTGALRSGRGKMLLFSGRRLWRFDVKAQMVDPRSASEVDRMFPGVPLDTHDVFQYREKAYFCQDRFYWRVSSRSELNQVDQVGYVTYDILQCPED

[23] = combination study: ND-336 0.05 mg/wound/day, MMP-8 1 μg/wound/day
[24] = topical ND-336 0.1 mg/wound/day

MMP-8, sequence (P22894 100-262): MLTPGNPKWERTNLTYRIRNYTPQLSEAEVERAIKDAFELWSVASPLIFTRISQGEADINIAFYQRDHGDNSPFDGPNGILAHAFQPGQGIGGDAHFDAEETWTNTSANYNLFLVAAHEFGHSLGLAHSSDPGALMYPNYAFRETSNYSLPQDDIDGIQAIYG
MMP-3, sequence (P08254 100-272): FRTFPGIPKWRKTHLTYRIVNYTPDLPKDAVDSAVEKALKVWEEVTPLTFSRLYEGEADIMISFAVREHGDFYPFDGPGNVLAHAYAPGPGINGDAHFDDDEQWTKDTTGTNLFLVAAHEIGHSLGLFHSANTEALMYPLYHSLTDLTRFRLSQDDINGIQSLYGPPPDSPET
MMP-1, sequence (P03956 100-269): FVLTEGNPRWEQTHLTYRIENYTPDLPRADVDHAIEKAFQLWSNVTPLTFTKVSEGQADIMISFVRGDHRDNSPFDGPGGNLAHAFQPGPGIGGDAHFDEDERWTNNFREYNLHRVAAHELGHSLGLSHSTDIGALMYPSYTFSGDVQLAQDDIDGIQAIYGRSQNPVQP
ADAM10, sequence (O14672 214-672): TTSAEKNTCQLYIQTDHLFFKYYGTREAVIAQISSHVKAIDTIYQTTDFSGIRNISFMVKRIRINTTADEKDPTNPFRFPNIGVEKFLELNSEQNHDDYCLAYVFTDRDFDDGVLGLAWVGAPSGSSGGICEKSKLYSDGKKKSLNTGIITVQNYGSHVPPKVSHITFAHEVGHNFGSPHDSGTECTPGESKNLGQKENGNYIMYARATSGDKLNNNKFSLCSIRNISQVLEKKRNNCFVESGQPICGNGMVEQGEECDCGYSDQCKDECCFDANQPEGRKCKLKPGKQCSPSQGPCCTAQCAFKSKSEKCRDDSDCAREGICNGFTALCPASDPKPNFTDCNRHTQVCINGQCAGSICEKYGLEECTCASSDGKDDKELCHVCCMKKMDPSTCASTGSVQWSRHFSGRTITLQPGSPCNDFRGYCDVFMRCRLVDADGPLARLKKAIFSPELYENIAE
ADAM9, sequence (Q13443 whole entry, looked up, change not shown): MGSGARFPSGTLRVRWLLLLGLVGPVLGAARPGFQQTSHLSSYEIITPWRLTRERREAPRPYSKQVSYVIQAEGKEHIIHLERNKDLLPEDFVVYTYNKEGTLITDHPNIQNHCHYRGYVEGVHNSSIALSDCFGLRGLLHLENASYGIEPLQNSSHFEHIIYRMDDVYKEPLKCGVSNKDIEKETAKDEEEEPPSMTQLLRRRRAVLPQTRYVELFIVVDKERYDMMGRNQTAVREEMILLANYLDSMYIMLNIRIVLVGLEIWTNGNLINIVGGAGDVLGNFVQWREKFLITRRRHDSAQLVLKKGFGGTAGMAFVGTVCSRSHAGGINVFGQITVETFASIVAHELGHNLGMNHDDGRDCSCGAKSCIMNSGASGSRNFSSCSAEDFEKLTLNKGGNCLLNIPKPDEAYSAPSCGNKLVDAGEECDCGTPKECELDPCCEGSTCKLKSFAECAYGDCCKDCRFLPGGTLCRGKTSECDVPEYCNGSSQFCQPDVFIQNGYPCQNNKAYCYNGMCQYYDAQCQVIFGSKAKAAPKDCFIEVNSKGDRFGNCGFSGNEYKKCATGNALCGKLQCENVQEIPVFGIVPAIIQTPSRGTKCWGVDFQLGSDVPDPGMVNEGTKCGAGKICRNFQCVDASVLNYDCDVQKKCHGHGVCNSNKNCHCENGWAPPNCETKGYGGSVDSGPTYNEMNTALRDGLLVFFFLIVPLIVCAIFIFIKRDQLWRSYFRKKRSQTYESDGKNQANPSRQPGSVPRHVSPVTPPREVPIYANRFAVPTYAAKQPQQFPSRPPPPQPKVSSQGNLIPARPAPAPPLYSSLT
MMP-7, sequence (P09237 95-267): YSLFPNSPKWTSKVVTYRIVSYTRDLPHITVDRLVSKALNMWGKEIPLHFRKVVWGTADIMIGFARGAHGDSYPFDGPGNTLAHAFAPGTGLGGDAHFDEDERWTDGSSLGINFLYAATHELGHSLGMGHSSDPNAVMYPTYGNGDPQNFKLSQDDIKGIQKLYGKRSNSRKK

## CS(=O)(=O)Oc1ccc(Oc2ccc(S(=O)(=O)CC3CS3)cc2)cc1 (stereo not drawn) [JNMS-38]
[1]
  Inhibition type, MMP-8: linear competitive
[2]
  Inhibition type, MMP-9: slow-binding

## Nc1ccc(Oc2ccc(S(=O)(=O)CC3CS3)cc2)cc1 (stereo not drawn) [ND-322]
[2]
  Inhibition type, MMP-9: slow-binding

## NCc1ccc(Oc2ccc(S(=O)(=O)CC3CS3)cc2)cc1 (stereo not drawn) [ND-336, (4-(4-((Thiiran-2-ylmethyl)sulfonyl)phenoxy)phenyl)methanamine HCl salt]
[3]
  inhibition of MMP-7 (in words): marginal to no inhibition
[3]; @ 100 μM
  inhibition at 100 µM: 1%
[4]
  Inhibition type, MMP-2: slow-binding
[5]; ND-336 0.1 mg/wound/day
  MMP-9 activity in wounds (DQ-gelatin): significantly decreased
[5]; [23]
  MMP-9 activity in wounds (DQ-gelatin): inhibition of MMP-9
[6]; ND-336 0.1 mg/wound/day
  MMP-8 activity in wounds (DQ-collagen): not affected
[6]; [23]
  MMP-8 activity in wounds (DQ-collagen): presence of MMP-8
[7]
  angiogenesis by anti-CD31 antibodies: increased angiogenesis
[8]; compared to vehicle
  VEGF concentrations in the wounds: increased
[8]; versus vehicle
  Area-under-the-curve (AUC) for VEGF: significantly increased
[9]
  inhibition of MMP-1 (in words): marginal to no inhibition
[9]; @ 100 μM, catalytic domain
  inhibition at 100 µM: 4%
[1]; HCl salt
  Inhibition type, MMP-8: linear noncompetitive; also recorded: linear non-competitive
[10]; @ 100 μM
  inhibition at 100 µM: 31%
[10]; printed as ADAMS
  inhibition of ADAM9 (in words): marginal to no inhibition
[11]
  inhibition of ADAM10 (in words): marginal to no inhibition
[11]; @ 100 μM
  inhibition at 100 µM: 14%
[12]; 0.05 mg/wound/day, day 14, versus vehicle and 0.025 and 0.01 mg/wound/day
  wound healing in dose-response study: significant better healing
[12]; [24]
  diabetic wound healing (in words): accelerated diabetic wound healing
  wound healing faster than vehicle: about 2 fold
[13]
  Area-under-the-curve (AUC) for IL-6: significantly reduced
[13]; days 1, 3, 14
  IL-6 concentrations in wounds: significantly reduced
[14]
  inhibition of MMP-3 (in words): marginal to no inhibition
[14]; @ 100 μM, catalytic domain
  inhibition at 100 µM: 23%
[15]
  apoptosis (TUNEL): significantly decreased
[16]
  Inhibition type, MMP-14: slow-binding
[2]
  Inhibition type, MMP-9: slow-binding
[2]; MMP-9 versus MMP-8
  lower Ki for MMP-9 than for MMP-8: 50 fold
[17]
  Area-under-the-curve (AUC) for TGF-β1: significantly reduced
[17]; days 1, 3, 14
  levels of TGF-β1 in wounds: significantly reduced
[18]
  re-epithelialization (H&E): almost complete re-epithelialization
[19]
  stability in the buffers used in the kinetic assays: stable

## COC(=O)Nc1ccc(Oc2ccc(S(=O)(=O)CC3CS3)cc2)cc1 (stereo not drawn) [ND-380]
[1]
  Inhibition type, MMP-8: non-competitive
  pKi: 4.89
[2]
  Inhibition type, MMP-9: slow-binding
  residence time: 19.6 min

## CCOC(=O)Nc1ccc(Oc2ccc(S(=O)(=O)CC3CS3)cc2)cc1 (stereo not drawn) [ND-394]
[1]
  Inhibition type, MMP-8: non-competitive
  pKi: 4.82
[2]
  Inhibition type, MMP-9: slow-binding
  pKi: 6.07
  residence time: 25.6 min

## CCOC(=O)Oc1ccc(Oc2ccc(S(=O)(=O)CC3CS3)cc2)cc1 (stereo not drawn) [ND-395]
[1]
  pKi: 4.96
[2]
  Inhibition type, MMP-9: slow-binding
  pKi: 6.03
  residence time: 119 min

## O=S(=O)(CC1CS1)c1ccc(Oc2ccccc2)cc1 (stereo not drawn) [SB-3CT, reference compound]
[2]
  Inhibition type, MMP-9: slow-binding

## CCC(=C/[C@H](C)C/C=C/C(C)=C/[C@@H](C)C(=O)[C@@H](C)[C@H](O)[C@@H](C)C/C(C)=C/C(=O)O)/C=C/[C@@H]1OC(=O)C=C[C@@H]1C [leptomycin B]
[20]
  inflammation in ultraviolet B irradiated murine skin: suppressed inflammation

## O=S(=O)(CC1CS1)c1ccc(Oc2ccc(O)cc2)cc1 (stereo not drawn) [p-OH SB-3CT]
[1]
  Inhibition type, MMP-8: non-competitive
  pKi: 5.59
[2]
  Inhibition type, MMP-9: slow-binding
  pKi: 6.80
  residence time: 24.5 min

## TIMP1: endogenous protein inhibitor, tissue inhibitor of metalloproteinase
[21]
  residence time of TIMP on MMP-2: 6.9 min
[22]
  residence time of TIMP on MMP-9: 7.9 min
